Measurements taken from US20230348459A1, “PYRROLIDINE COMPOUND AND USE THEREOF” (SIMCERE PHARMACEUTICAL CO., LTD., priority 2020, published 2023).
Like-named read-outs stand apart in the source and are kept apart here.

Tests used:
[1] = Blood-brain barrier (BBB) permeability in rats; type: in vivo, SD rats; conditions: for Kp at 2 h / concentration at 2 h: rat, female SD rats, 100 mg/kg QD, 2 h after administration; for Kp at 2 h: brain/plasma, read-out: B/P ratio
Procedure: Six female SD rats (200-300 g, 6-8 weeks) were randomized into 2 groups, 3 rats/group. Each rat was given the compounds of the present invention, and the vehicle was 0.5% methylcellulose aqueous solution. Animals were fed with water as usual and fasted overnight before the experiment, and feeding was resumed four hours after administration. Plasma and brain tissue were collected from rats of each group 2 h after administration. The whole blood sample collected was placed in a K2EDTA anticoagulation tube and centrifuged for 5 min (12,000 rpm, 4° C.) and then the plasma was taken for later detection. After tissue collection, the tissue was dried with filter paper, and the samples were stored in a -80° C. freezer for later detection.
10 µL of the rat plasma sample was taken and 150 µL of acetonitrile solvent (wherein an internal standard compound was contained) was added to precipitate proteins. After the mixture was vortexed for 5 min, centrifugation (14,000 rpm) was performed for 5 min. The supernatant was diluted 2-fold with water containing 0.1% (v/v) FA and injected into the LC-MS/MS system (AB Sciex Triple Quad 6500+) for the quantitative detection. For the 10x diluted samples, 2 µL of the sample was taken and 18 µL of blank plasma was added. After the mixture was vortexed for 0.5 min, 300 µL of acetonitrile solvent (wherein an internal standard compound was contained) was added to precipitate proteins. The other processing steps were identical to those for the samples not diluted. A calibration standard curve was prepared in SD rat plasma along with plasma quality control samples to determine the plasma concentration.
Brain tissue samples from rat were first homogenized with 4 times the mass volume of PBS homogenate. 20 µL of brain tissue homogenate sample was taken, and 20 µL of blank mouse plasma was added. The mixture was diluted and mixed uniformly, and 600 µL of acetonitrile solvent (wherein an internal standard compound was contained) was added to precipitate proteins. After the mixture was vortexed for 5 min, centrifugation (14,000 rpm) was performed for 5 min. The supernatant was diluted 2-fold with water containing 0.1% (v/v) FA and injected into the LC-MS/MS system (AB Sciex Triple Quad 6500+) for the quantitative detection.

MCF-7 subcutaneous tumor = assay: Growth inhibition in MCF-7 subcutaneous tumor model in mice; type: in vivo, NPG mice; conditions: for TGI: 3 weeks; for Average tumor volume Day 0: Day 0 (grouping); for Effect on body weight of mice: at the doses tried
Procedure: Cell inoculation: 0.1 ml/(containing 1 × 10^7) MCF-7 cell suspension (volume ratio of D-PBS : Matrigel = 1 : 1) was inoculated subcutaneously on the right back of each mouse, and the mice were inoculated subcutaneously with 17β-estradiol tablets four days before the cell inoculation.
Administration: The compound # Example 1 was administered at a dose of 1, 3, or 10 mg/kg, orally (PO), once daily (QD) for 3 weeks. The compound # Example 2 was administered at a dose of 10 mg/kg, orally (PO), once daily (QD) for 3 weeks. 8 mice were in the vehicle group and 6 mice were in the administration group.
The diameter of the tumor was measured with vernier calipers twice weekly. The calculation formula of tumor volume was V = 0.5a × b^2, wherein a and b represented the long and short diameters of the tumor, respectively. The body weights of the mice were weighed twice weekly.
The tumor-inhibiting efficacy of the compound was evaluated using tumor growth inhibition (TGI) (%).

MCF-7 intracranial tumor = assay: Growth inhibition in MCF-7 intracranial tumor model in mice; conditions: 30 mg/kg PO once daily
Procedure: Animal information: NPG mice (female, 6-8 weeks, body weight: about 17-29 g) were purchased from Beijing Vitalstar Biotechnology Co., Ltd. The mice were fed in SPF environment and each cage position was individually ventilated.
Cell culture: The human breast cancer MCF-7 cell line was cultured in vitro in EMEM (cell culture medium) supplemented with 10% fetal bovine serum, 1% Pen Strep and 10 µg/ml recombinant human insulin in a 37° C., 5% CO2 incubator. Conventional digestion treatment with 0.25% trypsin-EDTA digestion solution was carried out twice weekly for passage. When the cell saturation was 80%-90%, and the number reached the requirement, the cells were collected and counted.
Cell inoculation: 15 µl/(containing 2 × 10^6) MCF-7 cell suspension was inoculated into the brain of mice using a stereotaxic apparatus, a micro-injection pump and a miniature handheld cranial drill, and the mice were subcutaneously inoculated with 17β-estradiol tablets three days before the cell inoculation. On day 8 after cell inoculation, the mice were randomized into groups for administration according to the body weight thereof, and the day of grouping was Day 0.
11 mice were in the vehicle group and 8 mice were in the administration group. Mice in all groups were continuously administered until the mice died, which were euthanized due to poor state or the end of the experiment.
The body weight of the mice was measured twice weekly, and the survival status of the mice was observed.
At the end of the experiment on Day 48, all mice were euthanized.

[2] = brain, read-out: Drug concentration in brain
[3] = plasma, read-out: Drug concentration in plasma

## C[C@@H]1Cc2c([nH]c3ccccc23)C(c2c(F)cc(N[C@H]3CCN(CCCF)C3)cc2F)N1CC(F)(F)CO (stereo in doubt) [Example 7, 3-((1S,3R)-1-(2,6-difluoro-4-(((S)-1-(3-fluoropropyl)pyrrolidin-3-yl)amino)phenyl)-3-methyl-3,4-dihydro-1H-pyridino [3,4-b]indole-2(9H)-yl)-2,2-difluoropropane-1-ol]
[1]
  Kp at 2 h: 0.28
[1]; [2]
  concentration at 2 h: 703 ng/g
[1]; [3]
  concentration at 2 h: 2.54 µg/mL
MCF-7 subcutaneous tumor; 10 mg/kg PO QD
  TGI: 140.09%
  Average tumor volume Day 0: 170 mm^3
  Average tumor volume Day 21: 80 mm^3
MCF-7 subcutaneous tumor
  Effect on body weight of mice: do not significantly affect the body weight

## C[C@@H]1Cc2c([nH]c3ccccc23)[C@@H](c2ccc(N[C@H]3CCN(CCCF)C3)cn2)N1CC(F)(F)F [Example 3, N-((S)-1-(3-fluoropropyl)pyrrolidin-3-yl)-6-((1S,3R)-3-methyl-2-(2,2,2-trifluoroethyl)-2,3,4,9-tetrahydro-1H-pyridino[3,4-b]indol-1-yl)pyridine-3-amine]
[1]
  Kp at 2 h: 4.2
[1]; [2]
  concentration at 2 h: 10600 ng/g
[1]; [3]
  concentration at 2 h: 2.62 µg/mL
[1]; rats
  Blood-brain barrier permeability (in words): excellent blood-brain barrier permeability
MCF-7 intracranial tumor; until Day 48
  Deaths in group: No death case occurred
MCF-7 intracranial tumor; P < 0.01
  Survival period vs solvent control or Fulvestrant: significantly prolonged
MCF-7 subcutaneous tumor; 1 mg/kg PO QD
  TGI: 89.08%
  Average tumor volume Day 0: 183 mm^3
  Average tumor volume Day 21: 207 mm^3
MCF-7 subcutaneous tumor; 3 mg/kg PO QD
  TGI: 114.71%
  Average tumor volume Day 0: 169 mm^3
  Average tumor volume Day 21: 136 mm^3
MCF-7 subcutaneous tumor; 10 mg/kg PO QD
  TGI: 138.17%
  Average tumor volume Day 0: 177 mm^3
  Average tumor volume Day 21: 91 mm^3
MCF-7 subcutaneous tumor
  Effect on body weight of mice: do not significantly affect the body weight
MCF-7 subcutaneous tumor; doses of 3 mg/kg and 10 mg/kg
  Tumor shrinkage (in words): shows an effect of shrinking tumor
MCF-7 subcutaneous tumor; orally once daily at 1 mg/kg, 3 mg/kg or 10 mg/kg, P < 0.01
  Effect on tumor growth (in words): significant inhibitory effects
